9 compounds from patent publication US20260022142A1, “MACROCYCLIC IMMUNOMODULATORS” (Bristol-Myers Squibb Company, priority 2022, published 2026) can be followed below.

Molecules are shown by their SMILES. Bridge positions count the residues as written; N and C are the ends. Square brackets hold non-standard residues; d marks the D form. Peptide text beside a SMILES is read from it. * marks the point of attachment. Phe(3-COOH) = N[C@@H](Cc1cccc(C(=O)O)c1)C(=O)O; Phe(4-CONH2) = NC(=O)c1ccc(C[C@H](N)C(=O)O)cc1; Phe(4-CH2NH2) = NCc1ccc(C[C@H](N)C(=O)O)cc1; Bip = N[C@@H](Cc1ccc(-c2ccccc2)cc1)C(=O)O; Phe(3-CN) = N#Cc1cccc(C[C@H](N)C(=O)O)c1; Phe(4-CN) = N#Cc1ccc(C[C@H](N)C(=O)O)cc1; Phe(4-NH2) = Nc1ccc(C[C@H](N)C(=O)O)cc1; Phe(3-Me) = Cc1cccc(C[C@H](N)C(=O)O)c1; Phe(4-F) = N[C@@H](Cc1ccc(F)cc1)C(=O)O; Phe(2-Me) = Cc1ccccc1C[C@H](N)C(=O)O; Cha = N[C@@H](CC1CCCCC1)C(=O)O; Carboxymethyl = O=C(O)C*; Orn = NCCC[C@H](N)C(=O)O; Aun = NCCCCCCCCCCC(=O)O; Dab = NCC[C@H](N)C(=O)O; Dap = NC[C@H](N)C(=O)O; AEEA = NCCOCCOCC(=O)O

T1 sequence (Q15116 25-288): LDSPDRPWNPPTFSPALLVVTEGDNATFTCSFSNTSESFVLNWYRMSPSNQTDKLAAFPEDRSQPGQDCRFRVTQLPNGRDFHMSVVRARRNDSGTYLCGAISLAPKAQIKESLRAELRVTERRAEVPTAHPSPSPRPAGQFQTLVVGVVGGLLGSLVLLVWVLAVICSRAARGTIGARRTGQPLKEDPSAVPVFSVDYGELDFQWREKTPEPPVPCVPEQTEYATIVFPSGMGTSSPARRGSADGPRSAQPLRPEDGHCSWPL

This assay concerns the target T1, PD-1/PD-L1 interaction (PE-labeled human PD-L1-Ig binding to Jurkat cell line over-expressing human PD-1) (Homo sapiens, UniProt Q15116).
T1 construct: expressed in transfected cells; host or cells: Jurkat
Put plainly: Jurkat-PD-1 Cell Binding High-Content Screening Assay (CBA). It counts as cell-based. The following applies: Jurkat cell line over-expressing human PD-1; PE-labeled PD-L1-Ig 20 nM final; read-out: Jurkat hPD1-PDL1 IC50. The method in brief:
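Jurkat-hPD-1 cells, DMEM/10% FCS; cpd 2 h 37° C; PE-PD-L1-Ig 20 nM final, 1 h; 4% PFA fix + Hoechst 33342, 3× dPBS wash; high-content imaging read-out.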
In general, IC50 refers to the concentration at which inhibition is half-maximal. Take `Cc1cccc(C[C@@H]2NC(=O)[C@H](CC(=O)O)NC(=O)[C@H](Cc3ccc(OCC(=O)O)cc3)NC(=O)[C@H](CN)NC(=O)CSC[C@@H](C(=O)N[C@@H](CCN)C(=O)NCCOCCOCC(=O)NCCCCCCCCCCC(=O)O)NC(=O)[C@H](CCCN)NC(=O)[C@H](C(C)C)NC(=O)[C@H](CC3CCCCC3)NC(=O)[C@H](CCN)NC(=O)[C@@H](CC(C)C)NC(=O)[C@H](CCCN)NC(=O)[C@H](Cc3ccc(O)cc3)NC(=O)[C@H](Cc3ccc(-c4ccccc4)cc3)NC(=O)[C@H](Cc3ccccc3)NC2=O)c1` [Compound 2063] ({CH2CO}-[Dap]Y(Carboxymethyl)D[Phe(3-Me)]F[Bip]Y[Orn][dL][Dab][Cha]V[Orn]C[Dab][AEEA][Aun]-OH; thioether N-14): the IC50 is 4.9 nM.
In the case of `Cc1cccc(C[C@@H]2NC(=O)[C@H](CC(=O)O)NC(=O)[C@H](Cc3ccc(OCC(=O)O)cc3)NC(=O)[C@H](CN)NC(=O)CSC[C@@H](C(=O)N[C@@H](CCN)C(=O)NCCOCCOCC(=O)NCCCCCCCCCCC(=O)O)NC(=O)[C@H](CCCN)NC(=O)[C@H](C(C)C)NC(=O)[C@H](CC3CCCCC3)NC(=O)[C@H](CCN)NC(=O)[C@@H](CC(C)C)NC(=O)[C@H](CCCN)NC(=O)[C@H](Cc3ccc(O)cc3)NC(=O)[C@H](Cc3ccc(-c4ccccc4)cc3)NC(=O)[C@H](Cc3cccc(C(=O)O)c3)NC2=O)c1` [Compound 2064] ({CH2CO}-[Dap]Y(Carboxymethyl)D[Phe(3-Me)][Phe(3-COOH)][Bip]Y[Orn][dL][Dab][Cha]V[Orn]C[Dab][AEEA][Aun]-OH; thioether N-14), the IC50 came to 15.4 nM.
The result for `Cc1cccc(C[C@@H]2NC(=O)[C@H](CC(=O)O)NC(=O)[C@H](Cc3ccc(OCC(=O)O)cc3)NC(=O)[C@H](CN)NC(=O)CSC[C@@H](C(=O)N[C@@H](CCN)C(=O)NCCOCCOCC(=O)NCCCCCCCCCCC(=O)O)NC(=O)[C@H](CCCN)NC(=O)[C@H](C(C)C)NC(=O)[C@H](CC3CCCCC3)NC(=O)[C@H](CCN)NC(=O)[C@@H](CC(C)C)NC(=O)[C@H](CCCN)NC(=O)[C@H](Cc3ccc(O)cc3)NC(=O)[C@H](Cc3ccc(-c4ccccc4)cc3)NC(=O)[C@H](Cc3ccc(N)cc3)NC2=O)c1` [Compound 2065] ({CH2CO}-[Dap]Y(Carboxymethyl)D[Phe(3-Me)][Phe(4-NH2)][Bip]Y[Orn][dL][Dab][Cha]V[Orn]C[Dab][AEEA][Aun]-OH; thioether N-14) reads 4.8 nM.
The same measure for `Cc1cccc(C[C@@H]2NC(=O)[C@H](CC(=O)O)NC(=O)[C@H](Cc3ccc(OCC(=O)O)cc3)NC(=O)[C@H](CN)NC(=O)CSC[C@@H](C(=O)N[C@@H](CCN)C(=O)NCCOCCOCC(=O)NCCCCCCCCCCC(=O)O)NC(=O)[C@H](CCCN)NC(=O)[C@H](C(C)C)NC(=O)[C@H](CC3CCCCC3)NC(=O)[C@H](CCN)NC(=O)[C@@H](CC(C)C)NC(=O)[C@H](CCCN)NC(=O)[C@H](Cc3ccc(O)cc3)NC(=O)[C@H](Cc3ccc(-c4ccccc4)cc3)NC(=O)[C@H](Cc3ccc(C(N)=O)cc3)NC2=O)c1` [Compound 2066] ({CH2CO}-[Dap]Y(Carboxymethyl)D[Phe(3-Me)][Phe(4-CONH2)][Bip]Y[Orn][dL][Dab][Cha]V[Orn]C[Dab][AEEA][Aun]-OH; thioether N-14): 6 nM; for `Cc1cccc(C[C@@H]2NC(=O)[C@H](CC(=O)O)NC(=O)[C@H](Cc3ccc(OCC(=O)O)cc3)NC(=O)[C@H](CN)NC(=O)CSC[C@@H](C(=O)N[C@@H](CCN)C(=O)NCCOCCOCC(=O)NCCCCCCCCCCC(=O)O)NC(=O)[C@H](CCCN)NC(=O)[C@H](C(C)C)NC(=O)[C@H](CC3CCCCC3)NC(=O)[C@H](CCN)NC(=O)[C@@H](CC(C)C)NC(=O)[C@H](CCCN)NC(=O)[C@H](Cc3ccc(O)cc3)NC(=O)[C@H](Cc3ccc(-c4ccccc4)cc3)NC(=O)[C@H](Cc3ccc(CN)cc3)NC2=O)c1` [Compound 2067] ({CH2CO}-[Dap]Y(Carboxymethyl)D[Phe(3-Me)][Phe(4-CH2NH2)][Bip]Y[Orn][dL][Dab][Cha]V[Orn]C[Dab][AEEA][Aun]-OH; thioether N-14): 53.2 nM.
On to `Cc1cccc(C[C@@H]2NC(=O)[C@H](CC(=O)O)NC(=O)[C@H](Cc3ccc(OCC(=O)O)cc3)NC(=O)[C@H](CN)NC(=O)CSC[C@@H](C(=O)N[C@@H](CCN)C(=O)NCCOCCOCC(=O)NCCCCCCCCCCC(=O)O)NC(=O)[C@H](CCCN)NC(=O)[C@H](C(C)C)NC(=O)[C@H](CC3CCCCC3)NC(=O)[C@H](CCN)NC(=O)[C@@H](CC(C)C)NC(=O)[C@H](CCCN)NC(=O)[C@H](Cc3ccc(O)cc3)NC(=O)[C@H](Cc3ccc(-c4ccccc4)cc3)NC(=O)[C@H](Cc3ccccc3C)NC2=O)c1` [Compound 2069] ({CH2CO}-[Dap]Y(Carboxymethyl)D[Phe(3-Me)][Phe(2-Me)][Bip]Y[Orn][dL][Dab][Cha]V[Orn]C[Dab][AEEA][Aun]-OH; thioether N-14), for which the half-inhibitory concentration (IC50) was 14.9 nM.
With `Cc1cccc(C[C@@H]2NC(=O)[C@H](CC(=O)O)NC(=O)[C@H](Cc3ccc(OCC(=O)O)cc3)NC(=O)[C@H](CN)NC(=O)CSC[C@@H](C(=O)N[C@@H](CCN)C(=O)NCCOCCOCC(=O)NCCCCCCCCCCC(=O)O)NC(=O)[C@H](CCCN)NC(=O)[C@H](C(C)C)NC(=O)[C@H](CC3CCCCC3)NC(=O)[C@H](CCN)NC(=O)[C@@H](CC(C)C)NC(=O)[C@H](CCCN)NC(=O)[C@H](Cc3ccc(O)cc3)NC(=O)[C@H](Cc3ccc(-c4ccccc4)cc3)NC(=O)[C@H](Cc3ccc(F)cc3)NC2=O)c1` [Compound 2070] ({CH2CO}-[Dap]Y(Carboxymethyl)D[Phe(3-Me)][Phe(4-F)][Bip]Y[Orn][dL][Dab][Cha]V[Orn]C[Dab][AEEA][Aun]-OH; thioether N-14), the half-inhibitory concentration (IC50) was 11.6 nM.
On to `Cc1cccc(C[C@@H]2NC(=O)[C@H](CC(=O)O)NC(=O)[C@H](Cc3ccc(OCC(=O)O)cc3)NC(=O)[C@H](CN)NC(=O)CSC[C@@H](C(=O)N[C@@H](CCN)C(=O)NCCOCCOCC(=O)NCCCCCCCCCCC(=O)O)NC(=O)[C@H](CCCN)NC(=O)[C@H](C(C)C)NC(=O)[C@H](CC3CCCCC3)NC(=O)[C@H](CCN)NC(=O)[C@@H](CC(C)C)NC(=O)[C@H](CCCN)NC(=O)[C@H](Cc3ccc(O)cc3)NC(=O)[C@H](Cc3ccc(-c4ccccc4)cc3)NC(=O)[C@H](Cc3ccc(C#N)cc3)NC2=O)c1` [Compound 2071] ({CH2CO}-[Dap]Y(Carboxymethyl)D[Phe(3-Me)][Phe(4-CN)][Bip]Y[Orn][dL][Dab][Cha]V[Orn]C[Dab][AEEA][Aun]-OH; thioether N-14), for which the concentration for half-maximal inhibition (IC50) stood at 4.8 nM.
The same measure for `Cc1cccc(C[C@@H]2NC(=O)[C@H](CC(=O)O)NC(=O)[C@H](Cc3ccc(OCC(=O)O)cc3)NC(=O)[C@H](CN)NC(=O)CSC[C@@H](C(=O)N[C@@H](CCN)C(=O)NCCOCCOCC(=O)NCCCCCCCCCCC(=O)O)NC(=O)[C@H](CCCN)NC(=O)[C@H](C(C)C)NC(=O)[C@H](CC3CCCCC3)NC(=O)[C@H](CCN)NC(=O)[C@@H](CC(C)C)NC(=O)[C@H](CCCN)NC(=O)[C@H](Cc3ccc(O)cc3)NC(=O)[C@H](Cc3ccc(-c4ccccc4)cc3)NC(=O)[C@H](Cc3cccc(C#N)c3)NC2=O)c1` [Compound 2072] ({CH2CO}-[Dap]Y(Carboxymethyl)D[Phe(3-Me)][Phe(3-CN)][Bip]Y[Orn][dL][Dab][Cha]V[Orn]C[Dab][AEEA][Aun]-OH; thioether N-14): 8.5 nM.
